Patent US20260224658A1, “PRODUCTS AND METHODS FOR THE DIAGNOSIS AND TREATMENT OF P[…]” (priority 2023, published 2026)
Where a SMILES comes first, the peptide text is derived from it. [ ]: non-standard residue; d: D form.

Tests used:
[1] = system: MPAO1; assay: In vitro adaptive evolution (serial passaging) with MIC determination; assay type: cell-based, Pseudomonas aeruginosa
Experimental: (§1) MICs were determined via microbroth dilution assay in 96-well culture plates with 2-fold serial dilutions of tested antibiotic in Mueller-Hinton (cation-adjusted) broth, inoculated with 50 μL of 2.75×10^5 CFU/mL of each bacterial strain and incubated at 37° C., 200 rpm for 24 hours. MIC experiments were performed using biological triplicates.
(§2) Serial passaging of bacterial strains was performed in 96-well culture plates with 2-fold serial dilutions of antibiotic in MH broth, inoculated with 50 μL 2.75×10^5 CFU/mL of each strain and incubated at 37° C., 200 rpm for 24 hours. […] The bacteria were then serially passaged in the same antibiotic and MIC determined for all antibiotics (aztreonam, ciprofloxacin, D-CONGA, D-CONGA-Q7, polymyxin B). See Antimicrobial susceptibility testing section. The bacteria were serially passaged a total of 10 times.
(§3) All resistance acquisition data was analyzed in units of fold-change to normalize for differences in starting MIC across strains. Fold-change in MIC data for all strains and treatment groups was natural log-transformed and simple linear regression was performed considering each replicate fold-change value as an individual point. Slope, standard error of slope, and total number of values of each treatment group of interest were analyzed via unpaired t-test (ΔmutS vs WT) or ordinary one-way ANOVA (cross-resistance acquisition of ΔmutS+AB vs −AB vs WT), and α-values were corrected for multiple comparisons using the Bonferroni method. Differences in estimated mutation rate across treatment groups were determined via ordinary one-way ANOVA (Brown-Forsythe test). For all statistical tests, p<0.05 was considered significant. All figures were created and statistical tests were done using GraphPad Prism 9.3.1.

[2] = system: MPAO1-ΔmutS; assay: as above; assay type: cell-based, Pseudomonas aeruginosa; conditions: for cross-resistance to antibiotics induced by treatment / cross-resistance to peptides induced by treatment: MPAO1-ΔmutS evolved in the named drug; for resistance acquisition on repeated exposure to the drug: MPAO1-ΔmutS, monotherapy
Experimental: as §1, §2, §3

[3] = system: wild type P. aeruginosa (PAO1); conditions: reference 23; cited from earlier work
[4] = system: drug-resistant clinical isolates of Staphylococcus aureus, Klebsiella pneumoniae, Acinetobacter baumannii, and P. aeruginosa; conditions: in vitro and in vivo, reference 23; cited from earlier work
[5] = system: MPAO1-ΔmutL; assay: In vitro adaptive evolution (serial passaging) with MIC determination; assay type: cell-based, Pseudomonas aeruginosa; conditions: MPAO1-ΔmutL, monotherapy
Experimental: as §1, §2, §3

[6] = system: MPAO1; assay: microbe, parasite or virus in culture; assay type: cell-based, Pseudomonas aeruginosa; conditions: strain MPAO1
Experimental: (§4) MIC experiments were performed using biological triplicates.

[7] = system: PAO1; assay: microbe, parasite or virus in culture; assay type: cell-based, Pseudomonas aeruginosa; conditions: strain PAO1
Experimental: as §4

[8] = system: predicted MMR-deficient clinical isolates; assay: In vitro adaptive evolution of clinical isolates from pwCF; assay type: cell-based, Pseudomonas aeruginosa; conditions: isolates CFP6_Pa2, CFP8_Pa1 and CFP9_Pa1
Experimental: as §4

[9] = system: MPAO1-ΔmutL; assay: MIC, microbroth dilution assay; assay type: cell-based, Pseudomonas aeruginosa; conditions: strain ΔmutL
Experimental: as §4

[10] = system: MPAO1-ΔmutS; assay: MIC, microbroth dilution assay; assay type: cell-based, Pseudomonas aeruginosa; conditions: strain ΔmutS
Experimental: as §4

[11] = MPAO1 evolved in AZ + D-CONGA-Q7
[12] = MPAO1 passaged with No Antibiotic (Table 4)
[13] = MPAO1 passaged with No Antibiotic (Table 8)
[14] = MPAO1-ΔmutS evolved in AZ + COL
[15] = MPAO1-ΔmutS evolved in AZ + D-CONGA
[16] = MPAO1-ΔmutS evolved in AZ + D-CONGA-Q7
[17] = MPAO1-ΔmutS evolved in D-CONGA-Q7
[18] = MPAO1-ΔmutS passaged with No Antibiotic (Table 4)
[19] = MPAO1-ΔmutS passaged with No Antibiotic (Table 8)

Row | Molecule | fold-change relative to starting MIC before treatment ([1]; MPAO1 evolved in AZ) | fold-change relative to starting MIC before treatment ([1]; MPAO1 evolved in AZ + COL) | fold-change relative to starting MIC before treatment ([1]; MPAO1 evolved in AZ + D-CONGA) | fold-change relative to starting MIC before treatment [1, 11] | fold-change relative to starting MIC before treatment ([1]; MPAO1 evolved in COL) | fold-change relative to starting MIC before treatment ([1]; MPAO1 evolved in D-CONGA) | fold-change relative to starting MIC before treatment ([1]; MPAO1 evolved in D-CONGA-Q7) | fold-change relative to starting MIC before treatment [1, 12] | fold-change relative to starting MIC before treatment [1, 13] | fold-change relative to starting MIC before treatment ([2]; MPAO1-ΔmutS evolved in AZ) | fold-change relative to starting MIC before treatment [2, 14] | fold-change relative to starting MIC before treatment [2, 15] | fold-change relative to starting MIC before treatment [2, 16] | fold-change relative to starting MIC before treatment ([2]; MPAO1-ΔmutS evolved in COL) | fold-change relative to starting MIC before treatment ([2]; MPAO1-ΔmutS evolved in Chl) | cross-resistance to antibiotics induced by treatment [2] | cross-resistance to peptides induced by treatment [2] | fold-change relative to starting MIC before treatment [2, 18] | fold-change relative to starting MIC before treatment [2, 19] | resistance acquisition on repeated exposure to the drug [2] | further results
1 | CC(C)C[C@@H](NC(=O)[C@@H](CCC(N)=O)NC(=O)[C@@H](CCCNC(=N)N)NC(=O)[C@@H](CCCNC(=N)N)NC(=O)[C@@H](C)NC(=O)[C@@H](Cc1c[nH]c2ccccc12)NC(=O)[C@@H](CCCNC(=N)N)NC(=O)[C@H](N)CCCNC(=N)N)C(=O)N[C@H](C)C(=O)N[C@H](Cc1ccccc1)C(=O)N[C@H](C)C(=O)N[C@H](Cc1ccccc1)C(=O)N[C@H](CCCNC(=N)N)C(=O)N[C@H](CCCNC(=N)N)C(N)=O [D-CONGA-Q7] (H-[dR][dR][dW][dA][dR][dR][dQ][dL][dA][dF][dA][dF][dR][dR]-NH2; N-terminus and C-terminus assumed) | 1.2 | 1 | 1.2 | 1.2 | 1 | 1 | 1.33 | 1 | 1 | 0.42 | 2 | 0.67 | 0.67 | 1.75 | 1 | failed to induce marked cross-resistance to antibiotics | induced cross-resistance to other peptides | 1 | 1.38 | developed resistance | fold-change relative to starting MIC before treatment ([2]; MPAO1-ΔmutS evolved in D-CONGA): 2.67; fold-change relative to starting MIC before treatment [2, 17]: 3.33; induction of resistance [3]: has not been observed; efficacy against drug-resistant clinical isolates [4]: efficacious in vitro and in vivo
2 | CC(C)C[C@@H](NC(=O)[C@@H](CCCNC(=N)N)NC(=O)[C@@H](CCCNC(=N)N)NC(=O)[C@@H](C)NC(=O)[C@@H](Cc1c[nH]c2ccccc12)NC(=O)[C@@H](CCCNC(=N)N)NC(=O)[C@H](N)CCCNC(=N)N)C(=O)N[C@H](C)C(=O)N[C@H](Cc1ccccc1)C(=O)N[C@H](C)C(=O)N[C@H](Cc1ccccc1)C(=O)N[C@H](CCCNC(=N)N)C(=O)N[C@H](CCCNC(=N)N)C(N)=O [D-CONGA] (H-[dR][dR][dW][dA][dR][dR][dL][dA][dF][dA][dF][dR][dR]-NH2; N-terminus and C-terminus assumed) | 1.2 | 1 | 1.2 | 1.2 | 1 | 1 | 1.4 | 2 | 1 | 0.33 | 1.3 | 0.43 | 0.67 | 3 | 1 | failed to induce marked cross-resistance to antibiotics | induced cross-resistance to other peptides | 1 | 1 | developed resistance | fold-change relative to starting MIC before treatment ([2]; MPAO1-ΔmutS evolved in D-CONGA): 2; fold-change relative to starting MIC before treatment [2, 17]: 3.33; induction of resistance [3]: has not been observed; efficacy against drug-resistant clinical isolates [4]: efficacious in vitro and in vivo
3 | Colistin |  | 2.67 |  |  | 2 |  |  | 1 | 1 |  | 1.67 |  |  | 20 |  | failed to induce marked cross-resistance to antibiotics | induced cross-resistance to other peptides | 1 | 1 | Rapid acquisition of resistance | resistance acquisition on repeated exposure to the drug [5]: rapid resistance acquisition; resistance acquisition on repeated exposure to the drug ([1]; MPAO1, monotherapy, more slowly than MPAO1-ΔmutS): eventually displayed an elevated minimum inhibitory concentration (MIC); Average MIC at end point ([1]; MPAO1 evolved in AZ + COL): 5 µg/mL; Average MIC at end point ([1]; MPAO1 evolved in COL): 4 µg/mL; Average MIC at end point [1, 12]: 2 µg/mL; Average MIC at end point [1, 13]: 2 µg/mL; Average MIC at end point [2, 14]: 3 µg/mL; Average MIC at end point ([2]; MPAO1-ΔmutS evolved in COL): 53 µg/mL; Average MIC at end point [2, 18]: 2 µg/mL; Average MIC at end point [2, 19]: 2 µg/mL; MIC, average of triplicates [6]: 2 µg/mL; MIC, average of triplicates [7]: 2 µg/mL; resistance acquisition under monotherapy [8]: rapidly acquired resistance; MIC, average of triplicates [9]: 2 µg/mL; MIC, average of triplicates [10]: 2 µg/mL
